{"source": "patent US7410982B2", "about": "“Propanamine derivatives as serotonin and norepinephrine reuptake inhibitors” (Eli Lilly and Company, priority 2002, dated 2008)"}
{"smiles": "CNCC[C@@H](Oc1cncc2sccc12)c1ccccc1.Cl", "values": [{"measurement": "melting point", "result": 68.1, "unit": "°C"}]}
